Here are results for four compounds from ChEMBL document CHEMBL4251690, “Histone Deacetylase Inhibitors as Treatment for Targeting Multiple Components in Cancer Therapy” (ACS Med Chem Lett, 2018).

Where only a bound is given, the exact number is not on record here.

Common to all, as to type: cell-based
For assay [1], the target named is Histone deacetylase. Briefly: Inhibition of HDAC in human HeLa cells using Boc-K(Ac)-AMC as substrate by fluorescence assay.
In assay [2] the target is Histone deacetylase. Briefly: Inhibition of HDAC in human A549 cells using Boc-K(Ac)-AMC as substrate by fluorescence assay.
Assay [3] concerns the target Histone deacetylase. Briefly: Inhibition of HDAC in human K562 cells using Boc-K(Ac)-AMC as substrate by fluorescence assay.
In assay [4] the target is T1, Histone-lysine N-methyltransferase EHMT2 (Homo sapiens, UniProt Q96KQ7).
T1 sequence (Q96KQ7 whole entry): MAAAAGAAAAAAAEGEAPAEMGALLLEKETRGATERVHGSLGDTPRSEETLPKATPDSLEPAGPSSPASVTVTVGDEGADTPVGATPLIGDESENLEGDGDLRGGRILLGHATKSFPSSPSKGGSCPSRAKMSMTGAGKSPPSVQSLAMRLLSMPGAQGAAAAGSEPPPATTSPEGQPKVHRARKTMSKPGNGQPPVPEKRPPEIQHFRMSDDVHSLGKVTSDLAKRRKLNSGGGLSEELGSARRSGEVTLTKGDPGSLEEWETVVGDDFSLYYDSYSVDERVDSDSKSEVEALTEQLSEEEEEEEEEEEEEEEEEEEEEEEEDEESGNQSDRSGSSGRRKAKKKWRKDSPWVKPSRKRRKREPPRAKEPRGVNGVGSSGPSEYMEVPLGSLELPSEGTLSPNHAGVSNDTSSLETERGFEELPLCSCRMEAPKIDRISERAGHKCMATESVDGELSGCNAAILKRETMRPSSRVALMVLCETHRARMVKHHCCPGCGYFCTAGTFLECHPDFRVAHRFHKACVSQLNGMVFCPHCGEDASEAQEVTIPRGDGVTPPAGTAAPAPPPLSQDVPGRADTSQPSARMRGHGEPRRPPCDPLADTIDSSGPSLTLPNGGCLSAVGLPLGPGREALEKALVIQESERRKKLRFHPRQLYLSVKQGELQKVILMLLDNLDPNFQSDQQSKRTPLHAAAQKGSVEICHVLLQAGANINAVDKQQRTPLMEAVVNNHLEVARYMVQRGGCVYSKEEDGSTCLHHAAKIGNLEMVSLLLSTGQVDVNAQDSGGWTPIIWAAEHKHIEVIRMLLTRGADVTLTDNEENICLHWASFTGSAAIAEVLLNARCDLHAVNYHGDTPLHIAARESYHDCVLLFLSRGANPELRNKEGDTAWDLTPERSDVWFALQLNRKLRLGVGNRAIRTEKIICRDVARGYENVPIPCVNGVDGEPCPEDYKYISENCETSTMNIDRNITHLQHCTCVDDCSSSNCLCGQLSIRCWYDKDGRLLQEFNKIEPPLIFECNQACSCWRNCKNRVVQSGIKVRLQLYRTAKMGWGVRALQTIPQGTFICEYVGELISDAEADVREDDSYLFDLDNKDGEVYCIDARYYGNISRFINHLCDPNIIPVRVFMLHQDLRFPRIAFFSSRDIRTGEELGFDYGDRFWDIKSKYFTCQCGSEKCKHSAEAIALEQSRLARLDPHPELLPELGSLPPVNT
Briefly: Inhibition of G9a in human MDA-MB-231 cells assessed as reduction in H3K9me2 level after 2 days by immunofluorescence in-cell western analysis.

As usually defined, the IC50 is the concentration at which inhibition is half-maximal.

`COc1ccc2c(NCCNC(=O)CCCCCCC(=O)NO)nc(N3CCCN(C)CC3)nc2c1`: the concentration for half-maximal inhibition (IC50) at Histone deacetylase [1], against Histone deacetylase [2] and on Histone deacetylase [3] was > 100 µM throughout.

As for `COc1ccc2c(NC3CCN(Cc4ccccc4)CC3)nc(NCCNC(=O)CCCCCCC(=O)NO)nc2c1`, the IC50 against Histone deacetylase [1] was 15.33 µM; against Histone deacetylase [2], > 100 µM; at Histone deacetylase [3], 27.75 µM.

As to `CNC(=O)CCCCC(=O)NCCNc1nc(NC2CCN(C)CC2)c2ccc(OC)cc2n1`, the IC50 in assay [4] was 47 µM.

Take `COc1ccc2c(NC3CCN(Cc4ccccc4)CC3)nc(NCCNC(=O)CCCCCC(=O)NO)nc2c1`: the IC50 against Histone deacetylase [1] was 13.8 µM; against Histone deacetylase [2] it was > 100 µM; at Histone deacetylase [3], 5.735 µM.
